Where a name gives a salt, the structure may show the parent alone.

T1 sequence (P27958 1027-1657): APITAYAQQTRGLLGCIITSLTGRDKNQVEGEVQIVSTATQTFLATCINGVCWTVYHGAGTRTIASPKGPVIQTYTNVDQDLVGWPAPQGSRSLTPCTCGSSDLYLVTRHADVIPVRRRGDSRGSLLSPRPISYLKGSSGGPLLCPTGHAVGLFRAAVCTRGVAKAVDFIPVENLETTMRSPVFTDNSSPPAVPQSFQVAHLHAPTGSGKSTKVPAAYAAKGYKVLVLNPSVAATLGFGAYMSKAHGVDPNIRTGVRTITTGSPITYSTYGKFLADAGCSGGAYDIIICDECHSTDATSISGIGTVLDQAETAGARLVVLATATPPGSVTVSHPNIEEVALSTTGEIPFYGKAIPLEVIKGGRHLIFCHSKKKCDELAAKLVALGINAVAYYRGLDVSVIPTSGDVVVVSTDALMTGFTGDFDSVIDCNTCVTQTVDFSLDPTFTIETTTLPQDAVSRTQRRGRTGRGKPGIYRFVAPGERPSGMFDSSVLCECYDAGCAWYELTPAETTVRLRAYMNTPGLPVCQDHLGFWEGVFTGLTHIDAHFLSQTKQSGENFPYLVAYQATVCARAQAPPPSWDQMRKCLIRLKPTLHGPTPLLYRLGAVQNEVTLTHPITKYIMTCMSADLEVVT

The first assay concerns the target T1, NS3-NS4A protease (Hepatitis C virus genotype 1a, UniProt P27958).
T1 construct: Recombinant E. coli or Baculovirus full-length NS3 was diluted to 3.33 μM with assay buffer; made in house; host or cells: E. coli or baculovirus (BV) system
As to the kind of experiment: NS3-NS4A protease assay (NS3 inhibition assay, RETS1 substrate), Section B. The format is biochemical.
Conditions: not given
How it is done: NS3 complex formation with NS4A-2
Recombinant E. coli or Baculovirus full-length NS3 was diluted to 3.33 μM with assay buffer and the material transferred to an eppendorf tube and place in water bath in 4° C. refrigerator. The appropriate amount of NS4A-2 to 8.3 mM in assay buffer was added to equal the volume of NS3 in step 2.1.1 (conversion factor −3.8 mg/272 μL assay buffer). The material was transferred to an eppendorf tube and placed in a water bath in a 4° C. refrigerator.
After equilibration to 4° C., equal volumes of NS3 and NS4A-2 solutions were combined in an eppendorf tube, mixed gently with a manual pipettor, and the mixture incubated for 15 minutes in the 4° C. water bath. Final concentrations in the mixture were 1.67 μM NS3, 4.15 mM NS4A-2 (2485-fold molar excess NS4A-2).
After 15 minutes at 4° C., the NS3/NS4A-2 eppendorf tube was removed and placed in a room temperature water bath for 10 minutes. NS3/NS4A-2 was aliquoted at appropriate volumes and store at −80° C. (E. coli NS3 run at 2 nM in assay, aliquot at 25 μL. BV NS3 run at 3 nM in assay, aliquot at 30 μL.
Step 2.2.5. Sample compounds were dissolved to 10 mM in DMSO then diluted to 2.5 mM (1:4) in DMSO.
Step 2.2.6. The E. coli NS3/NS4A-2 was diluted to 4 nM NS3 (1:417.5 of 1.67 μM stock−18 μL 1.67 μM stock+7497 μL assay buffer).
The BV NS3/NS4A-2 was diluted to 6 nM NS3 (1:278.3 of 1.67 μM stock−24 μL 1.67 μM stock+6655 μL assay buffer).
Step 2.2.7. Using the manual multichannel pipettor, and being careful not to introduce bubbles into the plate, 50 μL assay buffer was added to wells A01-H01 of a black Costar 96-well polypropylene storage plate.
Step 2.2.8. Using the manual multichannel pipettor, and being careful not to introduce bubbles into the plate, 50 μL of diluted NS3/NS4A-2 from step 2.2.6 was added to wells A02-H12 of plate in step 2.2.7.
Step 2.2.9. Using the manual multichannel pipettor, and being careful not to introduce bubbles into the plate, 25 μL of the wells in drug dilution plate in step 2.2.5 were transferred to corresponding wells in assay plate in step 2.2.8. The tips on multichannel pipettor were changed for each row of compounds transferred.
Step 2.2.10. Using the manual multichannel pipettor, and being careful not to introduce bubbles into the plate, the wells from the assay plate in step 2.2.9 were mixed by aspirating and dispensing 35 μL of the 75 μL in each well five times. The tips on multichannel pipettor were changed for each row of wells mixed.
Step 2.2.11. The plate was covered with a polystyrene plate lid, and the plate from step 2.2.10 containing NS3 protease and sample compounds was pre-incubated 10 minutes at room temperature.
While the plate from step 2.2.11 was pre-incubating, the RETS1 substrate was diluted in a 15 mL polypropylene centrifuge tube. The RETS1 substrate was diluted to 8 μM (1:80.75 of 646 μM stock−65 μL 646 μM stock+5184 μL assay buffer).
After the plate in step 2.2.11 was done pre-incubating, and using the manual multichannel, 25 μL of substrate was added to all wells on the plate. The contents of the wells were quickly mixed, as in step 2.2.10, but mixing 65 μL of the 100 μL in the wells.
The plate was read in kinetic mode on the Molecular Devices SpectraMax Gemini XS plate reader. Reader settings: Read time: 30 minutes, Interval: 36 seconds, Reads: 51, Excitation λ: 335 nm, Emission λ: 495 nm, cutoff: 475 nm, Automix: off, Calibrate: once, PMT: high, Reads/well: 6, Vmax pts: 21 or 28/51 depending on length of linearity of reaction.
IC50s were determined using a four parameter curve fit equation, and converted to Ki's using the following Km's:
where Ki=IC50/(1+[S]/Km))
For `CC(C)[C@@H](N)C(=O)N[C@H]1CCCCC/C=C\[C@@H]2C[C@@]2(C(=O)O)NC(=O)[C@@H]2C[C@@H](OC(=O)N3CCc4ccccc4C3)CN2C1=O` [AR00298990, (1S,4R,6S,14S,18R)-14-(2-Amino-3-methyl-butyrylamino)-18-(3,4-dihydro-1H-isoquinoline-2-carbonyloxy)-2,15-dioxo-3,16-diaza-tricyclo[14.3.0.0^4,6]nonadec-7-ene-4-carboxylic acid], the IC50 is less than 10 µM.

Staying with this assay, now noted: read-out: NS3-NS4A IC50.
Take `O=C(NC1CCOC1)N[C@H]1CCCCC/C=C\[C@@H]2C[C@@]2(C(=O)O)NC(=O)[C@@H]2C[C@@H](OC(=O)N3CCc4ccccc4C3)CN2C1=O` (stereo partly drawn) [AR00320221, (1S,4R,6S,14S,18R)-18-(3,4-Dihydro-1H-isoquinoline-2-carbonyloxy)-2,15-dioxo-14-[3-(tetrahydro-furan-3-yl)-ureido]-3,16-diaza-tricyclo[14.3.0.0^4,6]nonadec-7-ene-4-carboxylic acid]: the IC50 is less than 1 µM.

For `CC(C)C(=O)N[C@H]1CCCCC/C=C\[C@@H]2C[C@@]2(C(=O)O)NC(=O)[C@@H]2C[C@@H](OC(=O)N3CCc4ccccc4C3)CN2C1=O` [AR00248688, (1S,4R,6S,14S,18R)-18-(3,4-Dihydro-1H-isoquinoline-2-carbonyloxy)-14-isobutyrylamino-2,15-dioxo-3,16-diaza-tricyclo[14.3.0.0^4,6]nonadec-7-ene-4-carboxylic acid], the IC50 is less than 10 µM.

Take `COCC1c2cccc(F)c2CCN1C(=O)O[C@@H]1C[C@H]2C(=O)N[C@]3(C(=O)NS(=O)(=O)C4CC4)C[C@H]3/C=C\CCCCC[C@H](N)C(=O)N2C1` (stereo partly drawn) [AR00424775, (1S,4R,6S,14S,18R)-5-Fluoro-1-methoxymethyl-3,4-dihydro-1H-isoquinoline-2-carboxylic acid 14-amino-4-cyclopropanesulfonylaminocarbonyl-2,15-dioxo-3,16-diaza-tricyclo[14.3.0.0^4,6]nonadec-7-en-18-yl ester, HCl salt]: the IC50 is less than 0.1 µM.

In the case of `CC(C)(C)OC(=O)N[C@H]1CCCCC/C=C\[C@@H]2C[C@@]2(C(=O)O)NC(=O)[C@@H]2C[C@@H](OC(=O)N3CCc4ccccc4C3CN3CCCCC3)CN2C1=O` (stereo partly drawn) [AR00301383, (1S,4R,6S,14S,18R)-14-tert-Butoxycarbonylamino-2,15-dioxo-18-(1-piperidin-1-ylmethyl-3,4-dihydro-1H-isoquinoline-2-carbonyloxy)-3,16-diaza-tricyclo[14.3.0.0^4,6]nonadec-7-ene-4-carboxylic acid], the IC50 was less than 10 µM.

For `CC(C)(C)OC(=O)N[C@H]1CCCCC/C=C\[C@@H]2C[C@@]2(C(=O)O)NC(=O)[C@@H]2C[C@@H](OC(=O)N3CCc4nc(N)sc4C3)CN2C1=O` [AR00304154, (1S,4R,6S,14S,18R)-18-(2-Amino-6,7-dihydro-4H-thiazolo[5,4-c]pyridine-5-carbonyloxy)-14-tert-butoxycarbonylamino-2,15-dioxo-3,16-diaza-tricyclo[14.3.0.0^4,6]nonadec-7-ene-4-carboxylic acid], the IC50 was less than 10 µM.

With `COc1ccc2c(c1)CCN(C(=O)O[C@@H]1C[C@H]3C(=O)N[C@]4(C(=O)O)C[C@H]4/C=C\CCCCC[C@H](NC(=O)OC(C)(C)C)C(=O)N3C1)C2CN1CCCCC1` (stereo partly drawn) [AR00333248, (1S,4R,6S,14S,18R)-14-tert-Butoxycarbonylamino-18-(6-methoxy-1-piperidin-1-ylmethyl-3,4-dihydro-1H-isoquinoline-2-carbonyloxy)-2,15-dioxo-3,16-diaza-tricyclo[14.3.0.0^4,6]nonadec-7-ene-4-carboxylic acid], the IC50 is less than 10 µM.

Consider `COc1cc2c(cc1OC)CN(C(=O)O[C@@H]1C[C@H]3C(=O)N[C@]4(C(=O)O)C[C@H]4/C=C\CCCCC[C@H](NC(=O)OC(C)(C)C)C(=O)N3C1)CC2` [AR00226824, (1S,4R,6S,14S,18R)-14-tert-Butoxycarbonylamino-18-(6,7-dimethoxy-3,4-dihydro-1H-isoquinoline-2-carbonyloxy)-2,15-dioxo-3,16-diaza-tricyclo[14.3.0.0^4,6]nonadec-7-ene-4-carboxylic acid], for which the IC50 was less than 10 µM.

With `CC(C)(C)OC(=O)N[C@H]1CCCCC/C=C\[C@@H]2C[C@@]2(C(=O)O)NC(=O)[C@@H]2C[C@@H](OC(=O)N3CCc4cc(N)ccc4C3)CN2C1=O` [AR00314578, (1S,4R,6S,14S,18R)-18-(6-Amino-3,4-dihydro-1H-isoquinoline-2-carbonyloxy)-14-tert-butoxycarbonylamino-2,15-dioxo-3,16-diaza-tricyclo[14.3.0.0^4,6]nonadec-7-ene-4-carboxylic acid], the IC50 is less than 1 µM.

As for `CC(C)(C)OC(=O)N[C@H]1CCCCC/C=C\[C@@H]2C[C@@]2(C(=O)O)NC(=O)[C@@H]2C[C@@H](OC(=O)N3CCc4cccc(C(F)(F)F)c4C3)CN2C1=O` [AR00294382, (1S,4R,6S,14S,18R)-14-tert-Butoxycarbonylamino-2,15-dioxo-18-(8-trifluoromethyl-3,4-dihydro-1H-isoquinoline-2-carbonyloxy)-3,16-diaza-tricyclo[14.3.0.0^4,6]nonadec-7-ene-4-carboxylic acid], the IC50 was less than 1 µM.

As to `O=C(N[C@H]1CCCCC/C=C\[C@@H]2C[C@@]2(C(=O)O)NC(=O)[C@@H]2C[C@@H](OC(=O)N3CCc4ccccc4C3)CN2C1=O)C1CCCC1` [AR00248689, (1S,4R,6S,14S,18R)-14-(Cyclopentanecarbonyl-amino)-18-(3,4-dihydro-1H-isoquinoline-2-carbonyloxy)-2,15-dioxo-3,16-diaza-tricyclo[14.3.0.0^4,6]nonadec-7-ene-4-carboxylic acid], the IC50 is less than 1 µM.

For the compound `CC(C)(C)OC(=O)N[C@H]1CCCCC/C=C\[C@@H]2C[C@@]2(C(=O)O)NC(=O)[C@@H]2C[C@@H](OC(=O)N3Cc4ccc(OCCN5CCOCC5)cc4C3)CN2C1=O` [AR00371946, (1S,4R,6S,14S,18R)-14-tert-Butoxycarbonylamino-18-[5-(2-morpholin-4-yl-ethoxy)-1,3-dihydro-isoindole-2-carbonyloxy]-2,15-dioxo-3,16-diaza-tricyclo[14.3.0.0^4,6]nonadec-7-ene-4-carboxylic acid], the IC50 was less than 0.1 µM.

With `CC(C)(C)C(=O)N[C@H]1CCCCC/C=C\[C@@H]2C[C@@]2(C(=O)O)NC(=O)[C@@H]2C[C@@H](OC(=O)N3CCc4ccccc4C3)CN2C1=O` [AR00248687, (1S,4R,6S,14S,18R)-18-(3,4-Dihydro-1H-isoquinoline-2-carbonyloxy)-14-(2,2-dimethyl-propionylamino)-2,15-dioxo-3,16-diaza-tricyclo[14.3.0.0^4,6]nonadec-7-ene-4-carboxylic acid], the IC50 is less than 1 µM.

For `CC(=O)Nc1nc2c(s1)CN(C(=O)O[C@@H]1C[C@H]3C(=O)N[C@]4(C(=O)O)C[C@H]4/C=C\CCCCC[C@H](NC(=O)OC(C)(C)C)C(=O)N3C1)CC2` [AR00314685, (1S,4R,6S,14S,18R)-18-(2-Acetylamino-6,7-dihydro-4H-thiazolo[5,4-c]pyridine-5-carbonyloxy)-14-tert-butoxycarbonylamino-2,15-dioxo-3,16-diaza-tricyclo[14.3.0.0^4,6]nonadec-7-ene-4-carboxylic acid], the IC50 was less than 50 µM.
